Experimental data taken from publication PMC6928345, “Detection and functional characterization of sigma class GST in Phlebotomus argentipes and its role in stress tolerance and DDT resistance” (Scientific Reports, 2019).

Experiments:
[1] = target: T1, rParg-GSTσ (sigma class GST of P. argentipes) (Phlebotomus argentipes, UniProt A0A5A4I953); assay: spectrophotometric GSH conjugation assay, […] nm; format: biochemical; settings: 1 mM GSH, CDNB 0.07–8 mM, sodium phosphate pH 6.5, room temperature
T1 construct: PCR primers designed on P. papatasi GSTσ
T1 sequence (A0A5A4I953 1-203): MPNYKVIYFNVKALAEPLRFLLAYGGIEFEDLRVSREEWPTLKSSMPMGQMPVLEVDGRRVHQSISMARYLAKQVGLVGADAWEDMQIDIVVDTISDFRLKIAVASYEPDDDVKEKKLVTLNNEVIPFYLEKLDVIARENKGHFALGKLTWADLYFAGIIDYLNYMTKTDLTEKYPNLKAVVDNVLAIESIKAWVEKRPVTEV

[2] = target: T1, rParg-GSTσ (sigma class GST of P. argentipes); assay: inhibition of GST activity, residual activity; format: biochemical
purified protein [3] = substrate: CC(C)(OO)c1ccccc1; assay: purified protein; format: biochemical, Phlebotomus argentipes; settings: 1 mM GSH, 0.2 mM NADPH, 1 mM EDTA, cumene hydroperoxide 0.08–1.0 mM, sodium phosphate buffer
purified protein [4] = substrate: CCCCCC(O)/C=C/C=O; assay: purified protein; format: biochemical, Phlebotomus argentipes; settings: 1 mM GSH, 4-HNE 10–100 µM, sodium phosphate buffer

Q: `O=[N+]([O-])c1ccc(Cl)c([N+](=O)[O-])c1` [CDNB] was tested. Which Km [1] did it give?
A: Its Km is 390 µM.

Q: How did the IC50 [2] turn out when `C=C(CC)C(=O)c1ccc(OCC(=O)O)c(Cl)c1Cl` [Ethacrynic acid] was run?
A: The IC50 was 50 nM.

B1: rParg-GSTσ (sigma class GST of P. argentipes) (Phlebotomus argentipes) (protein)
chain: MPNYKVIYFNVKALAEPLRFLLAYGGIEFEDLRVSREEWPTLKSSMPMGQMPVLEVDGRRVHQSISMARYLAKQVGLVGADAWEDMQIDIVVDTISDFRLKIAVASYEPDDDVKEKKLVTLNNEVIPFYLEKLDVIARENKGHFALGKLTWADLYFAGIIDYLNYMTKTDLTEKYPNLKAVVDNVLAIESIKAWVEKRPVTEV
notes: PCR primers designed on P. papatasi GSTσ
Q: How did the Km (purified protein [3]) turn out when B1 was run?
A: The Km was 180 µM.

Q: And the Km (purified protein [4])?
A: The Km was 5.02 µM.
